Measured values as given in patent publication US20250129370A1, “METHOD FOR REDUCING HEPATIC TRIGLYCERIDES” (ADAERATA, LIMITED PARTNERSHIP, priority 2022, published 2025).

Tests used:
[1] = tested on: mutated form of PCSK7 3′-UTR; test: Luciferase reporter assay, miRNA target site-deleted PCSK7 3′-UTR, HEK293T cells; type: cell-based, human
From the text: The interactions between the miRNAs and their probable targets on PCSK7 were explored by cloning the potential target regions in psiCHECK-2™ (Promega, USA), a luciferase reporter vector. In psiCHECK-2™, hRluc, the Renilla luciferase gene, is located upstream of the target regions of interest cloned into the psiCHECK-2™ vector downstream of the Renilla gene. The region corresponding to the 3′-UTR of PCSK7 (926-nt sequences in length) that constituted the predicted miRNA response elements was PCR-amplified and cloned downstream of the Renilla luciferase gene in the psiCHECK-2™ vector (Promega, USA). For the confirmation of whether miRNA response elements (miRNA target sites) on the 3′-UTR of PCSK7 were active and had direct interactions with the miRNAs, different mutants (plasmids) were constructed via splicing by over-hang-extension (SOEing) PCR. For miR-125a-5p and miR-143-3p, each of which has two miRNA response elements on PCSK7 3′-UTR, three different mutant constructs were built. Two constructs were made by deleting a putative miRNA target site, and the third one was made by omitting both putative miRNA target sites in the 3′-UTR sequence of PCSK7. In the miR-409-3p mutant construct, a putative miRNA target site was deleted from the 3′-UTR sequence.
The HEK293T cells were co-transfected through the application of the wild-type psiCHECK-2, the wild-type PCSK7 3′-UTR, the mutant PCSK7 3′-UTR, and the miR-overexpressing vectors so that the direct interactions of the nominated miRNAs with PCSK7 3′-UTR could be investigated. In brief, 150 ng of the wild-type or mutated 3′-UTR constructs and 300 ng of the miRNA-expressing vectors were co-transfected in HEK293T-cultured 48-well plates using FuGENE™ (Invitrogen, USA). Additionally, the psiCHECK-2 and pEGFP-C1 mock vectors were transfected and utilized as controls for luciferase assay and transfection, respectively. Transfection efficiency was monitored by fluorescent microscopy (Nikon TE2000S, Japan) 36 hours following the procedure.
The PsiCHECK-2 reporter construct plasmid contained the Renilla luciferase gene upstream of PCSK7 3′-UTR and an independent firefly luciferase gene as an internal control for normalization. Forty-eight hours after HEK293T co-transfection, the luciferase reporter assay was carried out employing the Dual-Luciferase Reporter Assay System (Promega, USA) with a luminometer (Titertek-Berthold, Germany) in accordance with the manufacturer's protocol. Each sample was performed in triplicate, and the experiment was repeated at least three biological times. In short, a lysis buffer was added to each well after the removal of the media of the cell. Then, LARII Reagent was added, and after 20 minutes, the firefly luciferase activity was measured as a control. Afterward, Renilla activity was determined using Stop & Glo Reagent. The relative luciferase activity was calculated using the following formula: ΔFold Activity of Luciferase (Renilla/Firefly)=Average Renilla/Firefly from Samples A/B.
A luciferase reporter assay further confirmed that miR-125a-5p, miR-143-3p, and miR-409-3p directly targeted the 3′-UTR of the PCSK7 transcript since the negative regulatory effect was lost upon the deletion of the miRNA target sites (miR-125a-5p, miR-143-3p, and miR-409-3p) on the 3′-UTR of the PCSK7 reporter plasmid (FIGS. 28A-B). In this regard, three different mutated miR plasmids were constructed for both miR-125a-5p and miR-143-3p. Single-target sites of each miRNA were omitted individually in two separate plasmids, and the two putative binding sites of the miRNAs were deleted in the other plasmid.

[2] = biological target: T1, secretory short N-terminal fragment of apoB (s-apoB; aa 1-965), P04114
T1 chain: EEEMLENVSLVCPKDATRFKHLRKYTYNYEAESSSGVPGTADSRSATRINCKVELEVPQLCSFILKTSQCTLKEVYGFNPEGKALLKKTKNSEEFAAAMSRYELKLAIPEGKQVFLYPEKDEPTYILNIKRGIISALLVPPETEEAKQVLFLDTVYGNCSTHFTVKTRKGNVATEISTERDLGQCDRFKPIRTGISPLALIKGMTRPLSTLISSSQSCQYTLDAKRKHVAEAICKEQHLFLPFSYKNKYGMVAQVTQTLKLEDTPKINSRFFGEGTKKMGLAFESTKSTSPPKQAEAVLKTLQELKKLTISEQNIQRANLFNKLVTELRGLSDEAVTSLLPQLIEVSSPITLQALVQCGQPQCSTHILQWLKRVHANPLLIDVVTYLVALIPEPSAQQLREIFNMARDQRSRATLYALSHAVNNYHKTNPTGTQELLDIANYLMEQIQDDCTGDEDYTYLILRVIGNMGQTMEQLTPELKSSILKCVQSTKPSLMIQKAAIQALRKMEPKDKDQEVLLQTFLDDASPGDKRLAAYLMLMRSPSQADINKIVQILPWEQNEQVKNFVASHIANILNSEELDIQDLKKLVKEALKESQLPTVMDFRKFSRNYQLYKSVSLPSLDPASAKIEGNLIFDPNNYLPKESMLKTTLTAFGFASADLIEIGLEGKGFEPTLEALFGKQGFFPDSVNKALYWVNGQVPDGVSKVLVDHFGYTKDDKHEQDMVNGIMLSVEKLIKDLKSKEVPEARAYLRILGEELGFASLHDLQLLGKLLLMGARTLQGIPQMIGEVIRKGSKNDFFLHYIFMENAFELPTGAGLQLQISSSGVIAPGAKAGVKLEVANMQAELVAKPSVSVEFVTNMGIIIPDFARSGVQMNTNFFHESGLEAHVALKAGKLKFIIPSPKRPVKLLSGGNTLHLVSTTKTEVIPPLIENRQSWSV

**Q.** Which luciferase activity ([1]; only putative target site of miR-409-3p absent) does the source give for “miR-409-3p: miRNA with one target site in the PCSK7 3′-UTR, overexpressed from precursor vector (GAAUGUUGCUCGGUGAACCCCU; miRNA expressed from a precursor vector, further chemistry not given here)” here?
**A.** Its luciferase activity is “did not lead to a reduction”.

**Q.** Which results are given for “miR-143-3p: miRNA with two target sites in the PCSK7 3′-UTR, overexpressed from precursor vector (UGAGAUGAAGCACUGUAGCUC; miRNA expressed from a precursor vector, further chemistry not given here)”?
**A.** relative luciferase activity ([1]; Mut-a, deletion of the first target site): considerably diminished; relative luciferase activity ([1]; Mut-a,b, deletion of both miRNA target sites): no significant effect; relative luciferase activity ([1]; Mut-b, deletion of the second target site): considerably diminished

B1: human PC7 (overexpressed in IHH cells) (protein)
chain: SVHFNDPKYPQQWHLNNRRSPGRDINVTGVWERNVTGRGVTVVVVDDGVEHTIQDIAPNYSPEGSYDLNSNDPDPMPHPDVENGNHHGTRCAGEIAAVPNNSFCAVGVAYGSRIAGIRVLDGPLTDSMEAVAFNKHYQINDIYSCSWGPDDDGKTVDGPHQLGKAALQHGVIAGRQGFGSIFVVASGNGGQHNDNCNYDGYANSIYTVTIGAVDEEGRMPFYAEECASMLAVTFSGGDKMLRSIVTTDWDLQKGTGCTEGHTGTSAAAPLAAGMIALMLQVRPCLTWRDVQHIIVFTATRYEDRRAEWVTNEAGFSHSHQHGFGLLNAWRLVNAAKIWTSVPYLASYVSPVLKENKAIPQSPRSLEVLWNVSRMDLEMSGLKTLEHVAVTVSITHPRRGSLELKLFCPSGMMSLIGAPRSMDSDPNGFNDWTFSTVRCWGERARGTYRLVIRDVGDESFQVGILRQWQLTLYGSVWSAVDIRDRQRLLESAMSGKYLHDDFALPCPPGLKIPEEDGYTITPNTLKTLVLVGCFTVFWTVYYMLEVYLSQRNVASNQVCRSGPCHWPHRSRKAKEEGTELESVPLCSSKDPDEVETESRGPPTTSDLLAPDLLEQGDWSLSQNKSALDCPHQHLDVPHGKEEQIC
**Q.** B1 was tested. Which “secretion of s-apoB (apoB21) into the medium, Western blot” value [2] did it give?
**A.** The value was “overexpression of PC7 enhanced the secretion of s-apoB (apoB21)”.

B2: rat PC7 (protein)
chain: SIHFNDPKYPQQWHLNNRRSPGRDINVTGVWERNVTGRGVTVVVVDDGVEHTVQDIAPNYSPEGSYDLNSNDPDPMPHPDEENGNHHGTRCAGEIAAVPNNSFCAVGVAYGSRIAGIRVLDGPLTDSMEAVAFNKHYQINDIYSCSWGPDDDGKTVDGPHQLGKAALQHGVMAGRQGFGSIFVVASGNGGQHNDNCNYDGYANSIYTVTIGAVDEEGRMPFYAEECASMLAVTFSGGDKMLRSIVTTDWDLQKGTGCTEGHTGTSAAAPLAAGMIALMLQVRPCLTWRDVQHIIVFTATQYEDHRADWLTNEAGFSHSHQHGFGLLNAWRLVNAAKIWTSVPYLASYVSPMLKENKAVPRSPHSLEVLWNVSRTDLEMSGLKTLEHVAVTVSITHPRRGSLELKLFCPSGMMSLIGAPRSMDSDPNGFNDWTFSTVRCWGERARGVYRLVIRDVGDEPLQVGILQQWQLTLYGSTWSPVDIKDRQSLLESAMSGKYLHDDFTLPCPPGLKIPEEDGYSITPNTLKTLVLVGCFSVFWTIYYMLEVCLSQRSKASTHGCRRGCCPWPPQSQNSKEVGTALESMPLCSSKDLDGVDSEHGDCTTASSLLAPELLGEADWSLSQNSKSDLDCPPHQPPDLKDGQIC
**Q.** How did the “secretion of s-apoB (apo21), Western blot” value [2] turn out when B2 was run?
**A.** The value was “rat PC7 (rPC7) also enhanced by ~2-fold the secretion of s-apoB (apo21)”.

B3: rat PC7 soluble-KDEL variant (retained in the ER) (protein)
chain: SIHFNDPKYPQQWHLNNRRSPGRDINVTGVWERNVTGRGVTVVVVDDGVEHTVQDIAPNYSPEGSYDLNSNDPDPMPHPDEENGNHHGTRCAGEIAAVPNNSFCAVGVAYGSRIAGIRVLDGPLTDSMEAVAFNKHYQINDIYSCSWGPDDDGKTVDGPHQLGKAALQHGVMAGRQGFGSIFVVASGNGGQHNDNCNYDGYANSIYTVTIGAVDEEGRMPFYAEECASMLAVTFSGGDKMLRSIVTTDWDLQKGTGCTEGHTGTSAAAPLAAGMIALMLQVRPCLTWRDVQHIIVFTATQYEDHRADWLTNEAGFSHSHQHGFGLLNAWRLVNAAKIWTSVPYLASYVSPMLKENKAVPRSPHSLEVLWNVSRTDLEMSGLKTLEHVAVTVSITHPRRGSLELKLFCPSGMMSLIGAPRSMDSDPNGFNDWTFSTVRCWGERARGVYRLVIRDVGDEPLQVGILQQWQLTLYGSTWSPVDIKDRQSLLESAMSGKYLHDDFTLPCPPGLKIPEEDGYSITPNTLKTKDEL
**Q.** With B3 as the molecule, how does the “secretion of s-apoB (apo21) compared to rPC7, Western blot” value [2] read?
**A.** The value was “rPC7-KDEL significantly reduced (~30%) s-apoB (apo21) secretion compared to rPC7”.
